Reference: patent publication US6689773B2, “Uracil substituted phenyl sulfamoyl carboxamides” (BASF Aktiengesellschaft, priority 2000, dated 2004)

Experiments:
Assay type in all cases: in vivo
[1] = system: ABUTH, Velvetleaf, Abutilon theophrasti, Medic.; assay: Postemergence herbicidal evaluation (Example 147); conditions: rating scale 0-9, two to three weeks after treatment
How it was run: (§1)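 Greenhouse postemergence test: two-week seedlings sprayed at about 0.016 to 0.032 kg/ha active. Scored visually, 0-9 scale, after two to three weeks.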

[2] = system: ALOMY, Blackgrass, Alopecurus myosuroides; assay: Postemergence herbicidal evaluation (Example 147); conditions: rating scale 0-9, two to three weeks after treatment
How it was run: as §1

[3] = system: AMBEL, Ragweed, Common, Ambrosia artemiisifolia, L.; assay: Postemergence herbicidal evaluation (Example 147); conditions: rating scale 0-9, two to three weeks after treatment
How it was run: as §1

[4] = system: CHEAL, Lambsquarters, Chenopodium album, L. Common; assay: Postemergence herbicidal evaluation (Example 147); conditions: rating scale 0-9, two to three weeks after treatment
How it was run: as §1

[5] = system: DIGSA, Crabgrass, (Hairy) L, Digitaria sanguinalis, (L)Scop; assay: Postemergence herbicidal evaluation (Example 147); conditions: rating scale 0-9, two to three weeks after treatment
How it was run: as §1

[6] = system: ECHCG, Barnyardgrass, Echinochloa crusgalli, (L.)Beau; assay: Postemergence herbicidal evaluation (Example 147); conditions: rating scale 0-9, two to three weeks after treatment
How it was run: as §1

[7] = system: GLXMA, Soybean, Glycine max, (L.) Merr.; assay: Postemergence herbicidal evaluation (Example 147); conditions: rating scale 0-9, two to three weeks after treatment
How it was run: as §1

[8] = system: IPOHE, Morningglory, Ivyleaf, Ipomoea hederacea, (L)Jacq.; assay: Postemergence herbicidal evaluation (Example 147); conditions: rating scale 0-9, two to three weeks after treatment
How it was run: as §1

[9] = system: SETVI, Green foxtail, Setaria viridis, (L.)Beau; assay: Postemergence herbicidal evaluation (Example 147); conditions: rating scale 0-9, two to three weeks after treatment
How it was run: as §1

[10] = system: TRZAW, Winter wheat, Tritium Aestivum, L. (Winter); assay: Postemergence herbicidal evaluation (Example 147); conditions: rating scale 0-9, two to three weeks after treatment
How it was run: as §1

[11] = system: XANST, Cocklebur, Xanthium strumariam; assay: Postemergence herbicidal evaluation (Example 147); conditions: rating scale 0-9, two to three weeks after treatment
How it was run: as §1

[12] = system: ZEAMX, Field corn, Zea mays L.; assay: Postemergence herbicidal evaluation (Example 147); conditions: rating scale 0-9, two to three weeks after treatment
How it was run: as §1

[13] = system: ABUTH, Velvetleaf, Abutilon theophrasti, Medic.; assay: Preemergence herbicidal evaluation (Example 148); conditions: rating scale 0-9, two to four weeks after treatment
How it was run: (§2)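 Visual rating vs. control (stand, vigor, malformation, size, chlorosis, overall appearance) at 2–4 wk post-treatment. Soil surface sprayed right after sowing; ~0.125–0.250 kg/ha in aqueous acetone. Repeat tests averaged.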

[14] = system: ALOMY, Blackgrass, Alopecurus myosuroides; assay: Preemergence herbicidal evaluation (Example 148); conditions: rating scale 0-9, two to four weeks after treatment
How it was run: as §2

[15] = system: AMBEL, Ragweed, Common, Ambrosia artemiisifolia, L.; assay: Preemergence herbicidal evaluation (Example 148); conditions: rating scale 0-9, two to four weeks after treatment
How it was run: as §2

[16] = system: CHEAL, Lambsquarters, Chenopodium album, L. Common; assay: Preemergence herbicidal evaluation (Example 148); conditions: rating scale 0-9, two to four weeks after treatment
How it was run: as §2

[17] = system: DIGSA, Crabgrass, (Hairy) L, Digitaria sanguinalis, (L)Scop; assay: Preemergence herbicidal evaluation (Example 148); conditions: rating scale 0-9, two to four weeks after treatment
How it was run: as §2

[18] = system: ECHCG, Barnyardgrass, Echinochloa crusgalli, (L.)Beau; assay: Preemergence herbicidal evaluation (Example 148); conditions: rating scale 0-9, two to four weeks after treatment
How it was run: as §2

[19] = system: GLXMA, Soybean, Glycine max, (L.) Merr.; assay: Preemergence herbicidal evaluation (Example 148); conditions: rating scale 0-9, two to four weeks after treatment
How it was run: as §2

[20] = system: IPOHE, Morningglory, Ivyleaf, Ipomoea hederacea, (L)Jacq.; assay: Preemergence herbicidal evaluation (Example 148); conditions: rating scale 0-9, two to four weeks after treatment
How it was run: as §2

[21] = system: SETVI, Green foxtail, Setaria viridis, (L.)Beau; assay: Preemergence herbicidal evaluation (Example 148); conditions: rating scale 0-9, two to four weeks after treatment
How it was run: as §2

[22] = system: TRZAW, Winter wheat, Tritium Aestivum, L. (Winter); assay: Preemergence herbicidal evaluation (Example 148); conditions: rating scale 0-9, two to four weeks after treatment
How it was run: as §2

[23] = system: XANST, Cocklebur, Xanthium strumariam; assay: Preemergence herbicidal evaluation (Example 148); conditions: rating scale 0-9, two to four weeks after treatment
How it was run: as §2

[24] = system: ZEAMX, Field corn, Zea mays L.; assay: Preemergence herbicidal evaluation (Example 148); conditions: rating scale 0-9, two to four weeks after treatment
How it was run: as §2

CCCN(CC)S(=O)(=O)NC(=O)c1cc(-n2c(=O)cc(C(F)(F)F)n(C)c2=O)c(F)cc1Cl [Example 62]
Postemergence herbicidal rating ABUTH ([1]; rate 0.016 kg/ha): 9.0
Postemergence herbicidal rating ABUTH ([1]; rate 0.032 kg/ha): 9.0
Postemergence herbicidal rating ALMOY ([2]; rate 0.016 kg/ha): 2.0
Postemergence herbicidal rating ALMOY ([2]; rate 0.032 kg/ha): 2.0
Postemergence herbicidal rating AMBEL ([3]; rate 0.016 kg/ha): 9.0
Postemergence herbicidal rating AMBEL ([3]; rate 0.032 kg/ha): 9.0
Postemergence herbicidal rating CHEAL ([4]; rate 0.016 kg/ha): 7.0
Postemergence herbicidal rating CHEAL ([4]; rate 0.032 kg/ha): 8.0
Postemergence herbicidal rating DIGSA ([5]; rate 0.016 kg/ha): 5.0
Postemergence herbicidal rating DIGSA ([5]; rate 0.032 kg/ha): 5.0
Postemergence herbicidal rating ECHCG ([6]; rate 0.016 kg/ha): 6.0
Postemergence herbicidal rating ECHCG ([6]; rate 0.032 kg/ha): 7.0
Postemergence herbicidal rating GLXMA ([7]; rate 0.016 kg/ha): 8.0
Postemergence herbicidal rating GLXMA ([7]; rate 0.032 kg/ha): 8.0
Postemergence herbicidal rating IPOHE ([8]; rate 0.016 kg/ha): 9.0
Postemergence herbicidal rating IPOHE ([8]; rate 0.032 kg/ha): 9.0
Postemergence herbicidal rating SETVI ([9]; rate 0.016 kg/ha): 6.0
Postemergence herbicidal rating SETVI ([9]; rate 0.032 kg/ha): 6.0
Postemergence herbicidal rating TRZAW ([10]; rate 0.016 kg/ha): 5.5
Postemergence herbicidal rating TRZAW ([10]; rate 0.032 kg/ha): 6.5
Postemergence herbicidal rating XANST ([11]; rate 0.016 kg/ha): 9.0
Postemergence herbicidal rating XANST ([11]; rate 0.032 kg/ha): 9.0
Postemergence herbicidal rating ZEAMX ([12]; rate 0.016 kg/ha): 6.5
Postemergence herbicidal rating ZEAMX ([12]; rate 0.032 kg/ha): 6.5
Preemergence herbicidal rating ABUTH ([13]; rate 0.125 kg/ha): 9.0
Preemergence herbicidal rating ABUTH ([13]; rate 0.25 kg/ha): 9.0
Preemergence herbicidal rating ALMOY ([14]; rate 0.125 kg/ha): 0.0
Preemergence herbicidal rating ALMOY ([14]; rate 0.25 kg/ha): 0.0
Preemergence herbicidal rating AMBEL ([15]; rate 0.125 kg/ha): 9.0
Preemergence herbicidal rating AMBEL ([15]; rate 0.25 kg/ha): 9.0
Preemergence herbicidal rating CHEAL ([16]; rate 0.125 kg/ha): 9.0
Preemergence herbicidal rating CHEAL ([16]; rate 0.25 kg/ha): 9.0
Preemergence herbicidal rating DIGSA ([17]; rate 0.125 kg/ha): 5.0
Preemergence herbicidal rating DIGSA ([17]; rate 0.25 kg/ha): 7.0
Preemergence herbicidal rating ECHCG ([18]; rate 0.125 kg/ha): 3.0
Preemergence herbicidal rating ECHCG ([18]; rate 0.25 kg/ha): 6.0
Preemergence herbicidal rating GLXMA ([19]; rate 0.125 kg/ha): 5.0
Preemergence herbicidal rating GLXMA ([19]; rate 0.25 kg/ha): 9.0
Preemergence herbicidal rating IPOHE ([20]; rate 0.125 kg/ha): 9.0
Preemergence herbicidal rating IPOHE ([20]; rate 0.25 kg/ha): 9.0
Preemergence herbicidal rating SETVI ([21]; rate 0.125 kg/ha): 3.0
Preemergence herbicidal rating SETVI ([21]; rate 0.25 kg/ha): 7.0
Preemergence herbicidal rating TRZAW ([22]; rate 0.125 kg/ha): 3.0
Preemergence herbicidal rating TRZAW ([22]; rate 0.25 kg/ha): 5.0
Preemergence herbicidal rating XANST ([23]; rate 0.125 kg/ha): 9.0
Preemergence herbicidal rating XANST ([23]; rate 0.25 kg/ha): 9.0
Preemergence herbicidal rating ZEAMX ([24]; rate 0.125 kg/ha): 1.0
Preemergence herbicidal rating ZEAMX ([24]; rate 0.25 kg/ha): 1.0

CCN(CC)S(=O)(=O)NC(=O)c1cc(-n2c(=O)cc(C(F)(F)F)n(C)c2=O)c(F)cc1Cl [Example 68]
Postemergence herbicidal rating ABUTH ([1]; rate 0.016 kg/ha): 9.0
Postemergence herbicidal rating ABUTH ([1]; rate 0.032 kg/ha): 9.0
Postemergence herbicidal rating ALMOY ([2]; rate 0.016 kg/ha): 1.0
Postemergence herbicidal rating ALMOY ([2]; rate 0.032 kg/ha): 1.0
Postemergence herbicidal rating AMBEL ([3]; rate 0.016 kg/ha): 9.0
Postemergence herbicidal rating AMBEL ([3]; rate 0.032 kg/ha): 9.0
Postemergence herbicidal rating CHEAL ([4]; rate 0.016 kg/ha): 8.0
Postemergence herbicidal rating CHEAL ([4]; rate 0.032 kg/ha): 8.0
Postemergence herbicidal rating DIGSA ([5]; rate 0.016 kg/ha): 6.0
Postemergence herbicidal rating DIGSA ([5]; rate 0.032 kg/ha): 6.0
Postemergence herbicidal rating ECHCG ([6]; rate 0.016 kg/ha): 8.0
Postemergence herbicidal rating ECHCG ([6]; rate 0.032 kg/ha): 8.0
Postemergence herbicidal rating GLXMA ([7]; rate 0.016 kg/ha): 8.5
Postemergence herbicidal rating GLXMA ([7]; rate 0.032 kg/ha): 8.5
Postemergence herbicidal rating IPOHE ([8]; rate 0.016 kg/ha): 9.0
Postemergence herbicidal rating IPOHE ([8]; rate 0.032 kg/ha): 9.0
Postemergence herbicidal rating SETVI ([9]; rate 0.016 kg/ha): 7.0
Postemergence herbicidal rating SETVI ([9]; rate 0.032 kg/ha): 9.0
Postemergence herbicidal rating TRZAW ([10]; rate 0.016 kg/ha): 5.0
Postemergence herbicidal rating TRZAW ([10]; rate 0.032 kg/ha): 5.5
Postemergence herbicidal rating XANST ([11]; rate 0.016 kg/ha): 9.0
Postemergence herbicidal rating XANST ([11]; rate 0.032 kg/ha): 9.0
Postemergence herbicidal rating ZEAMX ([12]; rate 0.016 kg/ha): 7.0
Postemergence herbicidal rating ZEAMX ([12]; rate 0.032 kg/ha): 7.5
Preemergence herbicidal rating ABUTH ([13]; rate 0.125 kg/ha): 9.0
Preemergence herbicidal rating ABUTH ([13]; rate 0.25 kg/ha): 9.0
Preemergence herbicidal rating ALMOY ([14]; rate 0.125 kg/ha): 0.0
Preemergence herbicidal rating ALMOY ([14]; rate 0.25 kg/ha): 0.0
Preemergence herbicidal rating AMBEL ([15]; rate 0.125 kg/ha): 9.0
Preemergence herbicidal rating AMBEL ([15]; rate 0.25 kg/ha): 9.0
Preemergence herbicidal rating CHEAL ([16]; rate 0.125 kg/ha): 8.0
Preemergence herbicidal rating CHEAL ([16]; rate 0.25 kg/ha): 8.0
Preemergence herbicidal rating DIGSA ([17]; rate 0.125 kg/ha): 3.0
Preemergence herbicidal rating DIGSA ([17]; rate 0.25 kg/ha): 4.0
Preemergence herbicidal rating ECHCG ([18]; rate 0.125 kg/ha): 3.0
Preemergence herbicidal rating ECHCG ([18]; rate 0.25 kg/ha): 4.0
Preemergence herbicidal rating GLXMA ([19]; rate 0.125 kg/ha): 7.0
Preemergence herbicidal rating GLXMA ([19]; rate 0.25 kg/ha): 8.0
Preemergence herbicidal rating IPOHE ([20]; rate 0.125 kg/ha): 9.0
Preemergence herbicidal rating IPOHE ([20]; rate 0.25 kg/ha): 9.0
Preemergence herbicidal rating SETVI ([21]; rate 0.125 kg/ha): 4.0
Preemergence herbicidal rating SETVI ([21]; rate 0.25 kg/ha): 8.0
Preemergence herbicidal rating TRZAW ([22]; rate 0.125 kg/ha): 0.0
Preemergence herbicidal rating TRZAW ([22]; rate 0.25 kg/ha): 0.0
Preemergence herbicidal rating XANST ([23]; rate 0.125 kg/ha): 9.0
Preemergence herbicidal rating XANST ([23]; rate 0.25 kg/ha): 9.0
Preemergence herbicidal rating ZEAMX ([24]; rate 0.125 kg/ha): 1.0
Preemergence herbicidal rating ZEAMX ([24]; rate 0.25 kg/ha): 2.0
